Read-outs that look alike come from different tables or passages of the source.
Test system: 407 cancer cell lines
Assay: Cell viability of cancer cell lines (IC50), CellTiter-Glo Viability Assay, 96 h
Assay type: cell-based
Conditions: for IC50: read-out: Absolute IC50
Procedure: Viability was determined by using the 50% inhibitory concentration (IC50) as determined with the CellTiter-Glo® Viability Assay (Promega).
Experiments were initiated by first thawing and equilibrating the CellTiter-Glo® Buffer to room temperature. The lyophilized CellTiter-Glo® Substrate was also equilibrated to room temperature. The lyophilized substrate was reconstituted with the CellTiter-Glo® buffer to form the CellTiter-Glo® Reagent.
Cells were harvested during the logarithmic growth period, counted, and the cell concentration adjusted to 4.44×10^4 cells/mL using culture medium.
Cells were allowed to grow overnight and the following day, the TO reading was obtained by adding 10 μL culture medium to each well of Plate A. The plate was allowed to equilibrate at room temperature for thirty minutes, after which 50 μL CellTiter-Glo® reagent was added to each well. The contents were mixed for 5 min on an orbital shaker to induce cell lysis. Plates were incubated for 20 minutes to stabilize the luminescent signal and the TO luminescence recorded.
Test plate B was incubated for 96 h in the humidified incubator at 37° C. with 5% CO2.
Following the incubation, the plate was equilibrated at room temperature for thirty minutes. CellTiter-Glo® (50 μL) was added to each well of the plate and contents mixed for five minutes on an orbital shaker to induce cell lysis. The luminescent signal was allowed to stabilize at room temperature for 20 minutes and the luminescence recorded.
IC50 (EC50) was calculated using a dose-response curve, fitted using a nonlinear regression model with a sigmoidal dose response. Survival rate was calculated using the formula:
The Surviving rate (%)=(LumTest article−LumMedium control)/(LumNon-treated−LumMedium control)×100%.
Absolute IC50 (EC50) was calculated according to the dose-response curve generated by the statistical software (GraphPad Prism 5.0).

N.N.[Cl][Pt][Cl] [Cisplatin, reference compound]
IC50 (MV-4-11 cells, 96 h): 0.41 µM | IC50 (MX-1): 2.39 µM | IC50 (Molt-4): 0.7 µM | IC50 (MsTo 211H): 2.5 µM | IC50 (NAMALWA CSN/70): 0.28 µM | IC50 (NAMALWA cells, 96 h): 0.63 µM | IC50 (NB4 cells, 96 h): 0.84 µM | IC50 (NCI-H23 cells, 96 h): 0.75 µM | IC50 (NCI-H69 cells, 96 h): 3.28 µM | IC50 (NCI-H82, 96 h): 1.83 µM | IC50 (NCI-H146 cells, 96 h): 1.81 µM | IC50 (NCI-H187): 0.68 µM | IC50 (NCI-H209 cells, 96 h): 0.44 µM | IC50 (NCI-H226): 3.56 µM | IC50 (NCI-H292 cells, 96 h): 2.25 µM | IC50 (NCI-H322 cells, 96 h): 10.8 µM | IC50 (NCI-H358 cells, 96 h): 6.07 µM | % inhibition at top conc. (NCI-H441 cells, 96 h): 74.99% | IC50 (NCI-H441 cells, 96 h): 6.18 µM | IC50 (NCI-H446 cells, 96 h): 1.93 µM | IC50 (NCI-H460 cells, 96 h): 2.77 µM | IC50 (NCI-H508 cells, 96 h): 8.02 µM | IC50 (NCI-H520 cells, 96 h): 10.7 µM | IC50 (NCI-H522 cells, 96 h): 4.49 µM | IC50 (NCI-H526 cells, 96 h): 0.33 µM | IC50 (NCI-H596): 2.06 µM | IC50 (NCI-H661 cells, 96 h): 6.42 µM | IC50 (NCI-H716 cells, 96 h): 8.99 µM | IC50 (NCI-H727 cells, 96 h): 13.2 µM | IC50 (NCI-H747 cells, 96 h): 7.3 µM | IC50 (NCI-H820 cells, 96 h): 0.79 µM | IC50 (NCI-H929): 3.07 µM | IC50 (NCI-H1048 cells, 96 h): 1.37 µM | IC50 (NCI-H1155 cells, 96 h): 2.15 µM | IC50 (NCI-H1299 cells, 96 h): 2.67 µM | IC50 (NCI-H1373): 1.45 µM | IC50 (NCI-H1395): 2.91 µM | IC50 (NCI-H1435): 14.8 µM | IC50 (NCI-H1437 cells, 96 h): 5.67 µM | IC50 (NCI-H1563): 16.9 µM | IC50 (NCI-H1568 cells, 96 h): 0.95 µM | IC50 (NCI-H1573 cells, 96 h): 10.6 µM | IC50 (NCI-H1581 cells, 96 h): 2.98 µM | IC50 (NCI-H1648 cells, 96 h): 8.25 µM | IC50 (NCI-H1650): 5.12 µM | IC50 (NCI-H1651 cells, 96 h): 0.62 µM | IC50 (NCI-H1666 cells, 96 h): 6.16 µM | IC50 (NCI-H1688): 13.8 µM | IC50 (NCI-H1703 cells, 96 h): 6.11 µM | IC50 (NCI-H1781 cells, 96 h): 0.64 µM | IC50 (NCI-H1838 cells, 96 h): 6.41 µM | IC50 (NCI-H1915 cells, 96 h): 5.23 µM | IC50 (NCI-H1975 cells, 96 h): 3.24 µM | IC50 (NCI-H1993 cells, 96 h): 10.4 µM | IC50 (NCI-H2009): 16.7 µM | IC50 (NCI-H2052): 5.77 µM | IC50 (NCI-H2087 cells, 96 h): 1.01 µM | IC50 (NCI-H2122 cells, 96 h): 8.93 µM | IC50 (NCI-H2170 cells, 96 h): 1.02 µM | IC50 (NCI-H2228 cells, 96 h): 4.6 µM | % inhibition at top conc. (NCI-H2452): 80.91% | IC50 (NCI-H2452): 35.5 µM | IC50 (NCI-H3122 cells, 96 h): 5.73 µM | IC50 (NCI-N87, 96 h): 0.95 µM | IC50 (NK-92MI): 1.2 µM | IC50 (NOZ): 1.19 µM | IC50 (NUGC-3 cells, 96 h): 0.25 µM | IC50 (NUGC-4 cells, 96 h): 3.65 µM | IC50 (OCI-AML3): 2.34 µM | IC50 (OCI-LY7 cells, 96 h): 1.81 µM | IC50 (OCUG-1): 16.3 µM | IC50 (OCUM-1 cells, 96 h): 9.94 µM | IC50 (OCUM-2D cells, 96 h): 2.59 µM | IC50 (OCUM-2M cells, 96 h): 3.62 µM | % inhibition at top conc. (OE19, 96 h): 81.07% | IC50 (OE19, 96 h): 19.4 µM | IC50 (OPM2): 0.79 µM | IC50 (OS-RC-2): 3.5 µM | IC50 (OSC-19 cells, 96 h): 8.56 µM | IC50 (OVCAR-3 cells, 96 h): 5.11 µM | IC50 (OVCAR-8 cells, 96 h): 3.13 µM | IC50 (OZ): 15 µM | IC50 (PANC-1): 4.61 µM | IC50 (PC-3): 4.66 µM | IC50 (PC-9 cells, 96 h): 1.97 µM | IC50 (PEER): 2.04 µM | IC50 (PL45): 1.76 µM | IC50 (PLC/PRF/5): 8.47 µM | IC50 (Pfeiffer cells, 96 h): 1.99 µM | IC50 (RBE cells, 96 h): 4.14 µM | IC50 (RD-ES): 0.8 µM | IC50 (RKO): 3.08 µM | IC50 (RPMI 8226 cells, 96 h): 4.04 µM | IC50 (RPMI-2650 cells, 96 h): 1.89 µM | IC50 (RS4;11): 0.33 µM | IC50 (RT4 cells, 96 h): 4.2 µM | IC50 (RT112/84): 0.93 µM | IC50 (Raji cells, 96 h): 2.07 µM | IC50 (Ramos cells, 96 h): 0.64 µM | IC50 (Reh): 0.43 µM | IC50 (SCC-4, 96 h): 2.96 µM | IC50 (SCC-9 cells, 96 h): 8.37 µM | IC50 (SCC-15 cells, 96 h): 3.3 µM | IC50 (SCH cells, 96 h): 6.82 µM | IC50 (SF268 cells, 96 h): 1.43 µM | IC50 (SF-126 cells, 96 h): 1.95 µM | IC50 (SF-763): 7.56 µM | IC50 (SH-SY5Y): 0.27 µM | IC50 (SJSA-1): 3.29 µM | IC50 (SK-BR-3): 0.6 µM | IC50 (SK-CO-1 cells, 96 h): 0.21 µM | IC50 (SK-HEP-1 cells, 96 h): 13.2 µM | IC50 (SK-LU-1 cells, 96 h): 1.38 µM | IC50 (SK-MEL-5, 96 h): 3.2 µM | IC50 (SK-MEL-28, 96 h): 5.62 µM | IC50 (SK-MES-1): 2.63 µM | IC50 (SK-N-FI cells, 96 h): 1.34 µM | IC50 (SK-N-SH): 0.36 µM | IC50 (SK-NEP-1 cells, 96 h): 0.6 µM | IC50 (SK-OV-3 cells, 96 h): 2.88 µM | IC50 (SK-UT-1 cells, 96 h): 6.94 µM | IC50 (SNU-1 cells, 96 h): 2.15 µM | IC50 (SNU-5, 96 h): 2.1 µM | IC50 (SNU-81): 3.7 µM | IC50 (SNU-216 cells, 96 h): 6.07 µM | IC50 (SNU-354): 13.8 µM | % inhibition at top conc. (SNU-368): 81.47% | IC50 (SNU-368): 20.2 µM | IC50 (SNU-387): 43.4 µM | IC50 (SNU-398): 4.9 µM | IC50 (SNU-423 cells, 96 h): 6.06 µM | IC50 (SNU-449): 3.52 µM | IC50 (SNU-475 cells, 96 h): 0.52 µM | IC50 (SNU-484 cells, 96 h): 4.96 µM | IC50 (SNU-601 cells, 96 h): 0.6 µM | IC50 (SNU-620 cells, 96 h): 7.03 µM | IC50 (SNU-638 cells, 96 h): 4.48 µM | IC50 (SNU-668 cells, 96 h): 4.96 µM | IC50 (SNU-719 cells, 96 h): 13.3 µM | IC50 (SNU-739): 0.81 µM | IC50 (SNU-761 cells, 96 h): 1.39 µM | IC50 (SNU-2535 cells, 96 h): 16.3 µM | IC50 (SNU-C2A): 1.77 µM | IC50 (SNU-C5 cells, 96 h): 2.36 µM | IC50 (ST486 cells, 96 h): 0.26 µM | IC50 (SU-DHL-1): 0.28 µM | IC50 (SU-DHL-4): 0.34 µM | IC50 (SU-DHL-5 cells, 96 h): 0.5 µM | IC50 (SU-DHL-6 cells, 96 h): 1.85 µM | IC50 (SU-DHL-8): 0.7 µM | IC50 (SUM159PT): 3.15 µM | IC50 (SUP-B15): 1.39 µM | IC50 (SW48 cells, 96 h): 1.27 µM | IC50 (SW 156 cells, 96 h): 1.03 µM | IC50 (SW480): 1.82 µM | IC50 (SW579 cells, 96 h): 1.41 µM | IC50 (SW626 cells, 96 h): 3.97 µM | IC50 (SW684 cells, 96 h): 33.4 µM | % inhibition at top conc. (SW756 cells, 96 h): 84.79% | IC50 (SW780 cells, 96 h): 1.98 µM | IC50 (SW837 cells, 96 h): 4.21 µM | IC50 (SW948 cells, 96 h): 17.8 µM | IC50 (SW1116 cells, 96 h): 7.94 µM | % inhibition at top conc. (SW1271): 85.04% | IC50 (SW1271): 17.1 µM | IC50 (SW1417 cells, 96 h): 6.91 µM | IC50 (SW1990): 0.85 µM | IC50 (SW-13): 1.38 µM | IC50 (SiHa cells, 96 h): 10.5 µM | IC50 (T24 cells, 96 h): 1.04 µM | IC50 (T47D): 5.25 µM | IC50 (T84): 3.17 µM | IC50 (TF-1): 5.11 µM | IC50 (TJ905 cells, 96 h): 9.46 µM | IC50 (TT cells, 96 h): 28.1 µM | IC50 (Toledo cells, 96 h): 0.49 µM | IC50 (U251 cells, 96 h): 3.52 µM | IC50 (U266B1): 4.53 µM | IC50 (U-87 MG cells, 96 h): 4.05 µM | IC50 (U-2932 cells, 96 h): 0.79 µM | IC50 (UACC-812 cells, 96 h): 4.61 µM | IC50 (UO.31 cells, 96 h): 4.4 µM | IC50 (WM-266-4 cells, 96 h): 3.12 µM | IC50 (WSU-DLCL2 cells, 96 h): 1.37 µM | IC50 (WSU-NHL cells, 96 h): 0.23 µM | IC50 (Y-79 cells, 96 h): 4.56 µM | IC50 (YCC-1 cells, 96 h): 6.62 µM | IC50 (YCC-2 cells, 96 h): 0.72 µM | IC50 (YCC-6 cells, 96 h): 2.62 µM | IC50 (YCC-10, 96 h): 0.69 µM | IC50 (YCC-11 cells, 96 h): 0.62 µM | IC50 (Z-138): 1.02 µM | IC50 (ZR-75-1): 5.73 µM | IC50 (ZR-75-30, 96 h): 2.99 µM

Source: patent publication US20210278408A1, “METHODS OF TREATMENT OF CANCER WITH SUBSTITUTED PYRROLE AND PYRAZOLE COMPOUNDS AND DIAGNOSIS OF CANCERS SUSCEPTIBLE TO TREATMENT WITH SUBSTITUTED PYRROLE AND PYRAZOLE COMPOUNDS” (Bantam Pharmaceutical, LLC, priority 2018, published 2021)
